Data on five compounds can be found in patent US12551500B2, “C6′-substituted locked nucleic acid-modified cap analog and use thereof” (Hangzhou Tianlong Pharmaceutical Co., Ltd., priority 2024, dated 2026).

One data set deals with T1, DCP2 enzyme (Schizosaccharomyces pombe, UniProt O13828).
T1 construct: purchased New England Biolabs
T1 sequence (O13828 1-243 limits assumed): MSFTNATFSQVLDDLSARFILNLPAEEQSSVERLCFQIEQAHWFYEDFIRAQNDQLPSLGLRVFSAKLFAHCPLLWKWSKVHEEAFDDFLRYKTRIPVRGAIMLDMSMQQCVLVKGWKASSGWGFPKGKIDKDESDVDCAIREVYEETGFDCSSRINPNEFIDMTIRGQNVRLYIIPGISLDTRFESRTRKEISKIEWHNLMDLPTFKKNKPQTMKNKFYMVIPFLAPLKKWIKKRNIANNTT
T1 sequence (Q9P805 1-127 partner): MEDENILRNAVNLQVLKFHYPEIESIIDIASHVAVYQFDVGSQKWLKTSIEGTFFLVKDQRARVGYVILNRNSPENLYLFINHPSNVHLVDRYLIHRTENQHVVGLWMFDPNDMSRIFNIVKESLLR
T1 sequence (Q10108 155-180 partner limits assumed): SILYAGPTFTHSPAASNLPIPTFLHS
The experiment in a line: Decapping enzyme stability test. It is filed as biochemical. The note with it: 30 pmol RNA, 50 U mRNA decapping enzyme, 37° C., 45 minutes. As to the method:
30 pmol of RNAs purified by polyacrylamide gel electrophoresis (PAGE) was subjected to an enzymatic reaction with 50 U of mRNA decapping enzyme (New England Biolabs) and 1×MDE buffer at 37° C. for 45 minutes. The enzymatic reactants were subjected to PAGE and stained with SYBR Green II (Lonza), followed by observation of the post-electrophoresis gel image on a Typhoon FLA 7000 (GE Healthcare) instrument. The electrophoresis band intensity ratio of RNA capping to RNA decapping was counted using ImageQuant (GE Healthcare) software, and the decapping rate of the decapping enzyme was calculated (as shown in Table 6).

The nature of data set [1]: Characterization of lipid nanoparticles encapsulating Fluc-mRNA. In kind it is physicochemical. The settings on record: for Particle size: LNP (YK-009/DSPC/cholesterol/DMG-PEG2000) encapsulating Fluc-mRNA transcribed using the cap analog; for PDI: LNP encapsulating Fluc-mRNA transcribed using the cap analog; for EE: encapsulation efficiency of LNP encapsulating Fluc-mRNA transcribed using the cap analog. The protocol: Cationic lipid YK-009 (Beijing Youcare Kechuang Pharmaceutical Technology Co., Ltd.), DSPC (AVT (Shanghai) Pharmaceutical Technology Co., Ltd.), cholesterol (AVT (Shanghai) Pharmaceutical Technology Co., Ltd.), and DMG-PEG2000 were dissolved in ethanol at a molar ratio of 49:10:39.5:1.5, and the mRNA was diluted in 50 mM citrate buffer (pH=4). The ethanol lipid solution was mixed with the Fluc-mRNA aqueous solution prepared from different cap structures at a volume ratio of 1:3 using a microfluidic device at a flow rate of 10 mL/min to prepare LNPs at a weight ratio of total lipid to mRNA of approximately 15:1. The resulting liposomes were diluted to 10-fold volume with PBS, and then ultrafiltered with a 300 KDa ultrafiltration tube to remove ethanol. The volume was then fixed to a certain volume with PBS. Finally, the LNPs were filtered through a 0.2 μm sterile filter to obtain an LNP preparation encapsulating Fluc-mRNA using YK-009/DSPC/cholesterol/DMG-PEG2000 (at a molar ratio of 49:10:39.5:1.5).
The particle size and polydispersity index (PDI) were determined by dynamic light scattering using a Malvern laser particle size analyzer. 10 μL of the liposome solution was taken, diluted to 1 mL with RNase-free deionized water, and added to a sample pool. Each sample was measured in triplicate. The measurement conditions were: a scattering angle of 90° and a temperature of 25° C. The encapsulation efficiency of LNPs was determined using the Quant-iT RiboGreen RNA Quantification Kit (Thermo Fisher Scientific, UK) according to the manufacturer's instructions.

In another data set the test system is BALB/C mice. The experiment in a line: In vivo imaging of protein expressed by LNP-carrying Fluc-mRNA in mice. The settings on record: female BALB/C mice. As to the method: The LNP preparation containing […] of Fluc-mRNAs transcribed using the cap analogs YK-CAP-001 to 006 in the present disclosure and the cap analogs N-7413, compound 14, and m6A in the prior art was intramuscularly injected into female BALB/C mice aged 4 to 6 weeks and weighing 17 to 19 g. At specific time points after administration (6 hours, 12 hours, 24 hours, 48 hours, 96 hours, and 168 hours), the mice were intraperitoneally injected with fluorescence imaging substrate. The mice were then allowed to move freely for 5 minutes, followed by detection of the average radiation intensity (corresponding to the amount of protein expression) of the protein expressed by LNP-carrying mRNA in the mice using an IVIS Spectrum small-animal in vivo imaging system.

For data set [2], the target named is T2, T7 RNA polymerase (Escherichia phage T7, UniProt P00573). The data set is described as follows: In vitro transcription yield of mRNA with cap analog (co-transcriptional capping). In kind it is biochemical. Details: in vitro transcription yield of mRNA: unit not given here. The settings on record: for Yield per unit template: in vitro transcription, 1 μg DNA template, 20 μL system, 37° C. 2 hours. As to the method:
(1) Capping synthesis using cap analogs
The plasmid was first linearized with plasmid linearizing enzyme, and then the linearized plasmid was purified.
(2) In vitro transcription and synthesis of mRNA
(§1) YK-CAP-001 to 006 and compound 14 in Table 1 were respectively used as cap analogs.
(§2) During the experiment, the volume of materials required for the system was first calculated, and then sample addition was conducted. The system was first added with sterile enzyme-free water, followed by the sequential addition of 10× buffer, NTPs, and cap analogs, mixed well, and gently centrifuged. Nuclease inhibitors, inorganic pyrophosphatase, T7 RNA polymerase, and linearized DNA templates were then added thereto. The system was mixed well, gently centrifuged, and incubated at 37° C. After 2 hours of incubation, the system was added with 1 U of DNase I and incubated at 37° C. for another 30 minutes. The mRNA precipitate was then washed with 75% ethanol, and after the ethanol was briefly evaporated to dryness, the mRNA was redissolved in sterile enzyme-free water.
(3) The transcription product was purified, and the in vitro transcription yield of mRNA was recorded.

Data set [3] has as its target T2, T7 RNA polymerase. The experiment in a line: Capping rate of in vitro transcribed mRNA by LC-MS. It is filed as biochemical. The settings on record: mRNA transcribed with the cap analog, LC-MS. As to the method: as §1, §2
(4) The obtained mRNA was subjected to an annealing reaction with a probe.
The annealing reaction was performed in a PCR instrument: 95° C. for 5 minutes; 65° C. for 2 minutes; 55° C. for 2 minutes; 40° C. for 2 minutes; 22° C. for 2 minutes.
(5) Magnetic bead pretreatment and probe binding: 100 μL of magnetic beads was placed on a magnetic frame for pretreatment. The magnetic bead solution was added with 120 μL of sample and incubated at room temperature for 30 minutes with slow mixing.
(6) mRNA splicing and obtaining the 5′ single-strand sequence bound to the probe
The mixture was added with 20 μL of RNase H (5 U/μL) and incubated at 37° C. for 3 hours with mixing every half hour. After incubation, the magnetic beads were washed and then added with 100 μL of 75% methanol heated to 80° C. The mixture was heated to 80° C. on a heating plate, held for 3 minutes, then placed on a magnetic frame to aspirate the supernatant, and dried at room temperature for 45 minutes to a volume of 10 μL using a centrifugal evaporator. The sample was then resuspended in 50 μL of 100 μM EDTA/1% MeOH and ready for LC-MS analysis to determine the capping of RNA in the transcription reaction. Since there is a significant difference in molecular weight between capped and uncapped bases, the capping rate of mRNA transcription initiated by different cap analogs can be determined based on the difference in molecular mass.

The mark [4] stands for this setting: 6 h after intramuscular injection of LNP Fluc-mRNA.
[5] abbreviates: 12 h after intramuscular injection of LNP Fluc-mRNA.
Setting [6] is: 24 h after intramuscular injection of LNP Fluc-mRNA.
[7] abbreviates: 48 h after intramuscular injection of LNP Fluc-mRNA.
The mark [8] stands for this setting: 96 h after intramuscular injection of LNP Fluc-mRNA.
The mark [9] stands for this setting: 168 h after intramuscular injection of LNP Fluc-mRNA.

T2 sequence (P00573 whole entry): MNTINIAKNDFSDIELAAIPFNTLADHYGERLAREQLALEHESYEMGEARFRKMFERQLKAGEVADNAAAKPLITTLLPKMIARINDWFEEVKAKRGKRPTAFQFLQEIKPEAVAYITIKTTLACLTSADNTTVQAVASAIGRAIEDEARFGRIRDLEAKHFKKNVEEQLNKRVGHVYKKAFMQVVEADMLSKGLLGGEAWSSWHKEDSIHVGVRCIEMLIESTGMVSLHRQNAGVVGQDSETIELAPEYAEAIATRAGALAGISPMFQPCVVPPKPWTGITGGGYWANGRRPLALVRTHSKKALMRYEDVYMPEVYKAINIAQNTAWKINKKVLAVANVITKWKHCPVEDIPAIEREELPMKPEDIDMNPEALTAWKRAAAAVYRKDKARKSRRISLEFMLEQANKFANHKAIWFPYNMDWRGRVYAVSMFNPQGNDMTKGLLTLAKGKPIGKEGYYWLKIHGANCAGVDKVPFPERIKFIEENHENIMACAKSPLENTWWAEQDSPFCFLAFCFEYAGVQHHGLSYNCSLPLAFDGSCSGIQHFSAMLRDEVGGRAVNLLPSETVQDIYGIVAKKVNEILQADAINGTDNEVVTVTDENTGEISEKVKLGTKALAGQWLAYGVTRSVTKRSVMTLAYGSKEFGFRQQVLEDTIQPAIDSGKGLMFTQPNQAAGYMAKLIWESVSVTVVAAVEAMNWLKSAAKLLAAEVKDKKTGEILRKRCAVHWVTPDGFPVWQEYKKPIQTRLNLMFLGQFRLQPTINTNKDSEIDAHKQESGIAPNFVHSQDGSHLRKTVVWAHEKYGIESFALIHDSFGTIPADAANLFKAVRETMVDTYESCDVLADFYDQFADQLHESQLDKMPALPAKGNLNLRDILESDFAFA

In the case of `COCC1C(O)[C@H]([n+]2cn(C)c3c(=O)[nH]c(N)nc32)O[C@@H]1COP(=O)(O)OP(=O)(O)OP(=O)(O)OC[C@H]1O[C@@H](n2cnc3c(N)ncnc32)C(OC)C1OP(=O)([O-])OC[C@H]1O[C@@H](n2cnc3c(=O)[nH]c(N)nc32)C(O)C1O` (stereo partly drawn) [HN3002, reference compound], the “Decapping rate (%) of DCP2 enzyme” value on DCP2 enzyme turned out to be 23.2%. Further, in data set [1], the Particle size was 91.03 nm, the PDI is 0.032 and the EE stood at 94.8%.
`COC1C(OP(=O)([O-])OC[C@H]2O[C@@H](n3cnc4c(=O)[nH]c(N)nc43)C(O)C2O)[C@@H](COP(=O)(O)OP(=O)(O)OP(=O)(O)OC[C@]23COC(C2O)[C@H]([n+]2cn(C)c4c(=O)[nH]c(N)nc42)O3)O[C@H]1n1cnc2c(N)ncnc21` (stereo partly drawn) [Compound 14, reference compound]: the “Decapping rate (%) of DCP2 enzyme” value on DCP2 enzyme stood at 28.8%. This compound displayed a Particle size in data set [1] of 102.2 nm. Also, in data set [1], the PDI came to 0.018. Also, in data set [1], the EE was determined as 96.8%. The Average radiation intensity was 2589500 p/s/cm^2/sr in the data set with BALB/C mice (setting [4]); 2,589,500 p/s/cm^2/sr in the data set on BALB/C mice (6 h after intramuscular injection of LNP Fluc-mRNA, listed as compound 14); 1622075 p/s/cm^2/sr in the data set with BALB/C mice (setting [5]); 1099050 p/s/cm^2/sr in the data set with BALB/C mice (setting [6]); 946675 p/s/cm^2/sr with BALB/C mice (setting [7]); 57270 p/s/cm^2/sr in the data set with BALB/C mice (setting [8]). Besides, the Average radiation intensity in the data set on BALB/C mice (setting [9]) was found to be 17828 p/s/cm^2/sr. Besides, the “Yield per unit template” value on T7 RNA polymerase [2] turned out to be 120.9 µg. For the same compound, the Capping rate on T7 RNA polymerase [3] was found to be 77.5%.
On to `CNc1ncnc2c1ncn2[C@@H]1O[C@H](COP(=O)(O)OP(=O)(O)OP(=O)(O)OC[C@H]2O[C@@H]([n+]3cn(C)c4c(=O)[nH]c(N)nc43)C(O)C2O)C(OP(=O)([O-])OC[C@H]2O[C@@H](n3cnc4c(=O)[nH]c(N)nc43)C(O)C2O)C1OC` (stereo partly drawn) [m6A, reference compound], for which the “Decapping rate (%) of DCP2 enzyme” value at DCP2 enzyme was determined as 27.5%. The compound further showed a Particle size in data set [1] of 89.99 nm. The compound further registered a PDI in data set [1] of 0.047. Also, in data set [1], the EE is 94.2%. The Average radiation intensity is reported as 702940 p/s/cm^2/sr in the data set on BALB/C mice (setting [5]); 201585 p/s/cm^2/sr with BALB/C mice (setting [6]); 238500 p/s/cm^2/sr with BALB/C mice (setting [7]); 33586 p/s/cm^2/sr in the data set with BALB/C mice (setting [8]); 12000 p/s/cm^2/sr in the data set on BALB/C mice (setting [9]).
Regarding `COC1C(OP(=O)([O-])OC[C@H]2O[C@@H](n3cnc4c(=O)[nH]c(N)nc43)C(O)C2O)[C@@H](COP(=O)(O)OP(=O)(O)OP(=O)(O)OC[C@]23O[C@@H]([n+]4cn(C)c5c(=O)[nH]c(N)nc54)C(O[C@H]2CCN(C)C)C3O)O[C@H]1n1cnc2c(N)ncnc21` (stereo partly drawn) [YK-CAP-001], the “Decapping rate (%) of DCP2 enzyme” value on DCP2 enzyme was found to be 26.3%. The same compound showed a Particle size in data set [1] of 86.13 nm. The PDI in data set [1] was found to be 0.044. In addition, in data set [1], the EE was found to be 95.7%. Besides, the Average radiation intensity with BALB/C mice (setting [4]) was 1728300 p/s/cm^2/sr; in the data set with BALB/C mice (setting [5]) it was 985800 p/s/cm^2/sr; in the data set on BALB/C mice (setting [6]) it was 612430 p/s/cm^2/sr; with BALB/C mice (setting [7]) it was 578750 p/s/cm^2/sr; with BALB/C mice (setting [8]) it was 43485 p/s/cm^2/sr; with BALB/C mice (setting [9]), 10467 p/s/cm^2/sr. The “in vitro transcription yield of mRNA” value at T7 RNA polymerase [2] is recorded as 89.3. In addition, on T7 RNA polymerase [2], the “Yield per unit template” value was 89.3 µg. At T7 RNA polymerase [3], the Capping rate came out at 73.1%.
With `COC1C(OP(=O)([O-])OC[C@H]2O[C@@H](n3cnc4c(=O)[nH]c(N)nc43)C(O)C2O)[C@@H](COP(=O)(O)OP(=O)(O)OP(=O)(O)OC[C@H]2O[C@@H]([n+]3cn(C)c4c(=O)[nH]c(N)nc43)C(O)C2OC)O[C@H]1n1cnc2c(N)ncnc21` (stereo partly drawn) [N-7413, reference compound], the “Decapping rate (%) of DCP2 enzyme” value on DCP2 enzyme is on record as 48.6%. The same compound gave a Particle size in data set [1] of 100.5 nm. In data set [1], the PDI is given as 0.041. In data set [1], the EE is listed as 95.4%. For the same compound, the Average radiation intensity in the data set on BALB/C mice (setting [5]) is reported as 1806125 p/s/cm^2/sr; in the data set with BALB/C mice (setting [6]) it was 906625 p/s/cm^2/sr; in the data set with BALB/C mice (setting [7]), 710545 p/s/cm^2/sr; with BALB/C mice (setting [8]), 68400 p/s/cm^2/sr; in the data set on BALB/C mice (setting [9]), 18233 p/s/cm^2/sr.
